One assay relates to HCT116 cells. Put plainly: Tumor cell proliferation (Alamar Blue), HCT116. Format: cell-based. As to conditions: Homo sapiens, HCT-116, 72 h. The method, then:
(§1) Human tumor cells (e.g., HCT116 or MDA-MB-231 cells), are seeded in a Costar 96-well plate at 3.0×10^3 cells/well and grown in 150 μl of RPMI complete media (Invitrogen Corporation, Grand Island, N.Y.) containing 10% fetal bovine serum (Hyclone, Logan, Utah) at 37° C. for 16 h in an incubator with 5% CO2. To each well, 50 μl of additional growth media containing 40 μM to 18 nM concentrations of compound with 0.4% DMSO is added. Cells are grown for another 72 h at 37° C. with 5% CO2. 20 μl of Alamar Blue (Trek Diagnostic Systems, Inc., Cleveland, Ohio) reagent is added to each well and incubated for 3 h at 37° C. Plates are read in a SpectraMax Gemini (Molecular Devices, Calif.) with 544 nm excitation and 590 nm emission wavelength. IC50 values are determined by linear regression analysis of log drug concentration versus percent inhibition.

Another assay has as its system MDA-MB-231 cells. Put plainly: Tumor cell proliferation (Alamar Blue), MDA-MB-231. Format: cell-based. The note with it: Homo sapiens, MDA-MB-231, 72 h. The method, then:
as §1

By IC50 is commonly meant the point on the concentration scale where inhibition reaches its midpoint.

As to `CC(C)(CN1CCOCC1)NC(=O)c1cn2ncnc(N)c2c1-c1ccc(NC(=O)Nc2cc(C(F)(F)F)ccc2Cl)cc1` [Example 149, 4-amino-5-{4-[({[2-chloro-5-(trifluoromethyl)phenyl]amino}carbonyl)amino]phenyl}-N-(1,1-dimethyl-2-morpholin-4-ylethyl)pyrrolo[2,1-f][1,2,4]triazine-6-carboxamide], the 50% inhibitory concentration (IC50) in the assay with HCT116 cells (bounds given in μM) was 1.5 to 5 µM; in the assay on MDA-MB-231 cells it was over 0.5 µM; with MDA-MB-231 cells (bounds given in μM), under 1.5 µM.
`N#Cc1cn2ncnc(N)c2c1-c1ccc(NC(=O)Nc2ccnc(C(F)(F)F)c2)cc1` [Example 153, N-[4-(4-amino-6-cyanopyrrolo[2,1-f][1,2,4]triazin-5-yl)phenyl]-N′-[2-(trifluoromethyl)pyridin-4-yl]urea]: the IC50 in the assay on HCT116 cells (bounds given in μM) and in the assay on MDA-MB-231 cells (bounds given in μM) was 5 to 10 µM each time.
Consider `Nc1ncnn2cc(-c3cnco3)c(-c3ccc(NC(=O)Nc4cc(C(F)(F)F)ccn4)cc3)c12` [Example 156, N-{4-[4-amino-6-(1,3-oxazol-5-yl)pyrrolo[2,1-f][1,2,4]triazin-5-yl]phenyl}-N′-[4-(trifluoromethyl)pyridin-2-yl]urea], for which the 50% inhibitory concentration (IC50) is over 0.5 µM in the assay with HCT116 cells, under 1.5 µM in the assay on HCT116 cells (bounds given in μM) and under 0.5 µM in the assay on MDA-MB-231 cells.
As to `CC(C)(C)c1cc(NC(=O)Nc2ccc(-c3c(C#N)cn4ncnc(N)c34)cc2)on1` [Example 161, N-[4-(4-amino-6-cyanopyrrolo[2,1-f][1,2,4]triazin-5-yl)phenyl]-N′-(3-tert-butylisoxazol-5-yl)urea], the IC50 in the assay with HCT116 cells is over 0.5 µM; in the assay with HCT116 cells (bounds given in μM) it was under 1.5 µM; in the assay on MDA-MB-231 cells (bounds given in μM) it was 1.5 to 5 µM.
Take `COCc1cn2ncnc(N)c2c1-c1ccc(NC(=O)Nc2cc(C(C)(C)C)nn2-c2ccc(F)cc2)cc1` [Example 217, N-{4-[4-amino-6-(methoxymethyl)pyrrolo[2,1-f][1,2,4]triazin-5-yl]phenyl}-N′-[3-tert-butyl-1-(4-fluorophenyl)-1H-pyrazol-5-yl]urea]: the values for the IC50 in the assay with HCT116 cells (bounds given in μM), in the assay with MDA-MB-231 cells and in the assay on MDA-MB-231 cells (bounds given in μM) were 1.5 to 5 µM, over 0.5 µM and under 1.5 µM, respectively.
Consider `Nc1ncnn2cc(CN3CCOCC3)c(-c3ccc(NC(=O)Nc4cc(C(F)(F)F)ccn4)cc3)c12` [Example 225, N-{4-[4-amino-6-(morpholin-4-ylmethyl)pyrrolo[2,1-f][1,2,4]triazin-5-yl]phenyl}-N′-[4-(trifluoromethyl)pyridin-2-yl]urea], for which the IC50 in the assay with HCT116 cells (bounds given in μM) and in the assay with MDA-MB-231 cells (bounds given in μM) was 1.5 to 5 µM throughout.
Take `CCOC(=O)c1coc(-c2cn3ncnc(N)c3c2-c2ccc(NC(=O)Nc3cc(C(F)(F)F)ccn3)cc2)n1` [Example 232, ethyl 2-(4-amino-5-{4-[({[4-(trifluoromethyl)pyridin-2-yl]amino}carbonyl)amino]phenyl}pyrrolo[2,1-f][1,2,4]triazin-6-yl)-1,3-oxazole-4-carboxylate]: the IC50 in the assay with HCT116 cells (bounds given in μM) and in the assay on MDA-MB-231 cells (bounds given in μM) was 1.5 to 5 µM each time.
`Nc1ncnn2cc(-c3ncco3)c(-c3ccc(NC(=O)Nc4cc(C(F)(F)F)ccn4)cc3)c12` [Example 235, N-{4-[4-amino-6-(1,3-oxazol-2-yl)pyrrolo[2,1-f][1,2,4]triazin-5-yl]phenyl}-N′-[4-(trifluoromethyl)pyridin-2-yl]urea]: the values for the IC50 with HCT116 cells, in the assay with MDA-MB-231 cells and in the assay on MDA-MB-231 cells (bounds given in μM) were under 0.5 µM, over 0.5 µM and under 1.5 µM, respectively.
In the case of `CCOC(=O)c1coc(-c2cn3ncnc(N)c3c2-c2ccc(NC(=O)Nc3cc(C(F)(F)F)ccc3F)cc2)n1` [Example 237, ethyl 2-(4-amino-5-{4-[({[2-fluoro-5-(trifluoromethyl)phenyl]amino}carbonyl)amino]phenyl}pyrrolo[2,1-f][1,2,4]triazin-6-yl)-1,3-oxazole-4-carboxylate], the values for the concentration for half-maximal inhibition (IC50) in the assay on HCT116 cells and with MDA-MB-231 cells (bounds given in μM) were under 0.5 µM and 1.5 to 5 µM, respectively.
In the case of `Nc1ncnn2cc(-c3nc(CO)co3)c(-c3ccc(NC(=O)Nc4cc(C(F)(F)F)ccc4F)cc3)c12` [Example 241, N-(4-{4-amino-6-[4-(hydroxymethyl)-1,3-oxazol-2-yl]pyrrolo[2,1-f][1,2,4]triazin-5-yl}phenyl)-N′-[2-fluoro-5-(trifluoromethyl)phenyl]urea], the values for the IC50 with HCT116 cells, with HCT116 cells (bounds given in μM) and in the assay with MDA-MB-231 cells (bounds given in μM) were over 0.5 µM, under 1.5 µM and 1.5 to 5 µM, respectively.

The values are drawn from patent US7563791B2, “Pyrrolotriazine derivatives useful for treating hyper-proliferative disorders and diseases associated with angiogenesis” (Bayer Pharmaceuticals Corporation, priority 2004, dated 2009).
